Experimental data reported in patent US20250388857A1, “USE OF TRIBUTYRIN AS AN ADDITIVE FOR EMBRYONIC DEVELOPMENT CULTURE MEDIUM IN VITRO” (Institute of Animal Sciences and Veterinary Medicine, Hubei …, priority 2024, published 2025).

Columns and labels:
[1] = tested on: GPX4; assay: detection of antioxidant gene expression in mouse embryos (qPCR), GPX4; format: cell-based; details: 100 μmol/L tributyrin, 2-cell stage, vs control, RPLP0 internal control
Description: (§1) Therefore, exemplically, experiments are carried out in the experimental group of this example using culture medium added 100 μmol/L of tributyrin, specifically, the experiments are divided into the following two groups:
(§2) Experimental group: the development culture medium in vitro of mouse embryos containing 100 μmol/L of tributyrin was added to the special dish for embryo culture, 2 droplets were made, 50 μL of culture medium per droplets, covered with paraffin oil, pre-balanced in an incubator with 37° C., 5% CO2 saturated humidity for more than 6 hours, and the embryos were placed in well-balanced culture droplets, with 25˜35 pieces per droplets.
(§3) Referring to the steps of development culture in vitro of example 2, development culture in vitro was carried out on the above two treatment groups; embryos from the control group and the experimental group at the 2-cell stage were obtained, the high-purity RNA was extracted according to the instructions of the RNAprep Pure Total RNA Extraction Kit for Micro Samples (Tiangen, DP420). […] (annealed) for 30 s; 40 cycles (PCR amplification); the fluorescent signal was collected at 55° C. extension, the RPLPO gene was used as an internal control, and the expression was calculated using the 2^−ΔΔct formula, wherein, the primer sequences of each gene are shown in Table 2 below: […]

[2] = tested on: SOD2; assay: detection of antioxidant gene expression in mouse embryos (qPCR), SOD2; format: cell-based; details: 100 μmol/L tributyrin, 2-cell stage, vs control, RPLP0 internal control
Description: as §1, §2, §3

[3] = tested on: 5 hmC level in mouse embryonic genome; assay: detection of DNA methylation level (5 hmC immunofluorescence); format: cell-based; details: 100 μmol/L tributyrin, 2-cell stage, vs control
Description: as §1, §2
Referring to the steps of development culture in vitro of example 2, development culture in vitro was carried out on the above two treatment groups; embryos from the control group and the experimental group at the 2-cell stage were obtained, in order to detect the DNA methylation level in mouse embryos, the cells were first fixed with paraformaldehyde, TritonX-100 enhanced the permeability of the cell membrane to facilitate the binding of antibody antigens. After acidification and base neutralization, the non-specific protein is blocked with 2% BSA, followed by incubation with the corresponding primary antibody and fluorescently labeled secondary antibody. The specific methods and steps are as follows: […]

[4] = tested on: mouse embryos; assay: detection of ATP level in mouse embryos; format: cell-based; details: 100 μmol/L tributyrin, 2-cell stage, vs control
Description: as §1, §2
Referring to the steps of development culture in vitro of example 2, development culture in vitro was carried out on the above two treatment groups; according to the instructions of the ATP detection kit (Biyuntian, S0027), the embryos of the control group and the experimental group at the 2-cell stage were tested for ATP. Add 16 μL of ATP detection lysate to 200 μL centrifuge tube and transfer into 40 pieces 2-cell stage embryos. […] 64 μL of ATP working solution (ATP detection reagent diluent: ATP detection reagent=4:1) was added to the tube, vortex and centrifuged to the bottom of the tube, quickly transferred to a black 96-well plate with a multifunctional microplate reader for detection.

[5] = tested on: histone H3K27ac; assay: detection of histone acetylation level (H3K27ac immunofluorescence); format: cell-based, mouse; details: 100 μmol/L tributyrin, 2-cell stage, vs control
Description: as §1, §2
Referring to the steps of development culture in vitro of example 2, development culture in vitro was carried out on the above two treatment groups; embryos from the control group and the experimental group at the 2-cell stage were obtained, the histone H3K27ac level was detected by immunofluorescence. The specific methods and steps are as follows:
(1) Mouse embryos fixation and permeabilization: mouse embryos were placed in a washing solution (PBS containing 0.1% Tween-20 and 0.01% Triton X-100) for rapid washing for 1 time, then piped into the fixed permeabilization solution (PBS containing 4% paraformaldehyde and 0.5% Triton) and treated at room temperature for 50 min. […]

[6] = tested on: mouse embryos; assay: detection of mitochondrial membrane potential, JC-1 staining; format: cell-based; details: 100 μmol/L tributyrin, 2-cell stage, vs control
Description: as §1, §2
Referring to the steps of development culture in vitro of example 2, development culture in vitro was carried out on the above two treatment groups; according to the instructions of the mitochondrial membrane potential J C-1 detection kit (Biyuntian, C2006), the embryos of the control group and the experimental group at the 2-cell stage were transferred into 1×J C-1 staining working solution, incubated in the dark at 37° C., 5% CO2 incubator for 30 min, then wash the embryos with 1×J C-1 staining buffer, it was placed under an inverted fluorescence microscope for observation and photography. Image J software was used to analyze the average fluorescence intensity of J C-1 red and J C-1 green in embryos.

[7] = tested on: mouse embryos; assay: development in vitro of mouse embryos (rate of 2-cell, 4-cell, blastocyst); format: cell-based; details: for The rate of 2-cell: 24 h culture; for The rate of 4-cell: 48 h culture
Description: Specifically, at 4:00 p.m. on the first day, 10 IU pregnant horse serum gonadotropin was injected intraperitoneally into Kunming female mouse with SPF level for 6˜9 weeks, and 8 IU chorionic gonadotropin was injected after 48 hours. At 9:00 the next day, the 9˜12-week male mouse was killed by cervical dislocation, and the tail of the epididymis next to the vas deferens was taken, after cutting with ophthalmic scissors in 200 μL of insemination droplet (Sigma, MR-070-D) is to release sperm for 60 minutes. The insemination droplet need to be pre-balanced the night before. At the same time, 4 female mouse were killed by neck detachment, the enlargement of oviduct was disposed of in the sperm solution, the insulin needle was used to open the ampulla side under the microscope, and the cumulus-oocyte complex (COCs) would be released from the ampulla under the action of squeezing or internal pressure. 8˜10 μL of sperm and COCs were taken in the insemination droplet. After 6 h after insemination, the zygotes (with two pronuclei, both male and female) were cleaned and transferred to different treatments of KSOM culture medium, specific groups are as follows:
Control group: the basic development culture medium in vitro of mouse embryos was added to the special small dish for embryo culture, 2 droplets were made, 50 μL of culture medium per droplets, covered with paraffin oil, pre-balanced in an incubator with 37° C., 5% CO2 saturated humidity for more than 6 hours, and the embryos were placed in well-balanced culture droplets, with 25˜35 pieces per droplets;
as §2, with “Treatment group 1:” for “Experimental group:”, “50” for “100”, “droplets;” for “droplets.”
as §2, with “Treatment group 2:” for “Experimental group:”, “droplets;” for “droplets.”
as §2, with “Treatment group 3:” for “Experimental group:”, “200” for “100”, “droplets;” for “droplets.”
The above different treatment groups were incubated in an incubator with 37° C., 5% CO2 saturated humidity for 24 h, 48 h, 72 h and 96 h, corresponding to the 2-cell, 4-cell, morula and blastocyst stages of embryonic development, respectively, and the embryonic development was observed.
The rate of cleavage (%)=number of cleavage embryos/number of fertilized eggs with male and female pronuclei×100%
The rate of blastocyst (%)=number of blastocysts/number of cleavage embryos×100%

[8] = tested on: mouse embryos; assay: detection of reactive oxygen species (ROS) in mouse embryos, DCFH-DA fluorescence; format: cell-based; details: 100 μmol/L tributyrin, 2-cell stage, vs control
Description: as §1, §2
Referring to the steps of development culture in vitro of example 2, development culture in vitro was carried out on the above two treatment groups; according to the instructions of the reactive oxygen species detection kit (Biyuntian, S0033S), DCFH-DA was diluted to a working solution concentration of 5 µM with KSOM culture medium. […] Image J software was used to analyze the average fluorescence intensity of ROS in embryos.

`CCCC(=O)OCC(COC(=O)CCC)OC(=O)CCC` [tributyrin] was tested, and the “expression of antioxidant gene GPX4” value [1] was “significantly increased”, the “expression of antioxidant gene SOD2” value [2] was “significantly increased” and the “5 hmC level in mouse embryos” value [3] was “significantly increased”. For the same molecule, the “ATP level in mouse embryos” value [4] was “significantly increased”, the “histone H3K27ac level in mouse embryos” value [5] was “significantly increased” and the “mitochondrial membrane potential level (relative fluorescence intensity of JC-1 red/green)” value [6] was “significantly improved”. The “The rate of 2-cell” value ([7]; 50 μmol/L tributyrin in KSOM) was 96.58 ± 0.83%, the “The rate of 4-cell” value ([7]; 50 μmol/L tributyrin in KSOM) was 95.57 ± 0.57% and the “The rate of 2-cell” value ([7]; 100 μmol/L tributyrin in KSOM) was 96.91 ± 0.76%. For the same molecule, the “The rate of 4-cell” value ([7]; 100 μmol/L tributyrin in KSOM) was 96.57 ± 0.37%, the “The rate of 2-cell” value ([7]; 200 μmol/L tributyrin in KSOM) was 96.63 ± 0.5% and the “The rate of 4-cell” value ([7]; 200 μmol/L tributyrin in KSOM) was 96.46 ± 0.5%. The “number of cells (microscopic observation, FIG. 1A)” value ([7]; treatment group compared to control group) was “increased significantly” and the “ROS level (average fluorescence intensity of ROS) in mouse embryos” value [8] was “significantly reduced”.
